Data set [1] has as its system RAW264.7. Put plainly: Antiinflammatory activity in mouse RAW264.7 cells assessed as inhibition of LPS induced iNOS-dependent nitric oxide production at 1.25 ug/ml after 24 hrs by Griess assay relative to control. Type of data set: functional. Particulars: RAW264.7, 24 h.
Data set [2] deals with RAW264.7. Nature of the data set: Antiinflammatory activity in mouse RAW264.7 cells assessed as inhibition of LPS induced iNOS-dependent nitric oxide production at 2.5 ug/ml after 24 hrs by Griess assay relative to control. Type of data set: functional. Particulars: RAW264.7, 24 h. For orientation: The Griess reaction detects nitrite, a stable product of nitric oxide.
In data set [3] the test system is RAW264.7. Nature of the data set: Antiinflammatory activity in mouse RAW264.7 cells assessed as inhibition of LPS induced iNOS-dependent nitric oxide production at 5 ug/ml after 24 hrs by Griess assay relative to control. In kind it is functional. The conditions noted are these: RAW264.7, 24 h.
Data set [4] has as its system RAW264.7. Nature of the data set: Antiinflammatory activity in mouse RAW264.7 cells assessed as inhibition of LPS induced iNOS-dependent nitric oxide production at 10 ug/ml after 24 hrs by Griess assay relative to control. In kind it is functional. The conditions noted are these: RAW264.7, 24 h.
Data set [5] relates to RAW264.7. Put plainly: Antiinflammatory activity in mouse RAW264.7 cells assessed as inhibition of LPS induced iNOS-dependent nitric oxide production after 24 hrs by Griess assay. Type of data set: functional, cell-based. Particulars: RAW264.7, 24 h.
The nature of data set [6]: Cytotoxicity against LPS-stimulated mouse RAW264.7 cells assessed as cell viability at 1.25 ug/ml after 24 hrs by MTT assay relative to control. Particulars: LPS-stimulated RAW264.7 cells, read-out: Activity. Type of data set: cell-based. A general note: Tetrazolium dyes change colour on reduction, which living cells bring about.
Data set [7] is described as follows: Cytotoxicity against LPS-stimulated mouse RAW264.7 cells assessed as cell viability at 2.5 ug/ml after 24 hrs by MTT assay relative to control. In kind it is cell-based. Particulars: LPS-stimulated RAW264.7 cells, read-out: Activity.
A short description of data set [8]: Cytotoxicity against LPS-stimulated mouse RAW264.7 cells assessed as cell viability at 5 ug/ml after 24 hrs by MTT assay relative to control. Type of data set: cell-based. Particulars: LPS-stimulated RAW264.7 cells, read-out: Activity.
A short description of data set [9]: Cytotoxicity against LPS-stimulated mouse RAW264.7 cells assessed as cell viability at 10 ug/ml after 24 hrs by MTT assay relative to control. Type of data set: cell-based. Particulars: LPS-stimulated RAW264.7 cells, read-out: Activity.

In brackets after ≈: the same amount, converted by molar mass.

The term inhibition denotes how much of the control response was suppressed. As a reminder, the IC50 is the concentration that gives 50% inhibition. On to `COc1ccc(CCC(=O)c2ccc(OC)c(OC)c2)cc1O`, for which, in the data set on RAW264.7 [1], the inhibition at 1.25 µg/mL worked out at 2.9%. Moreover, the inhibition at 2.5 µg/mL in the data set with RAW264.7 [2] stood at 6.3%. In addition, the inhibition at 5 µg/mL in the data set on RAW264.7 [3] was found to be 17.3%. Besides, the inhibition at 10 µg/mL with RAW264.7 [4] is 31%. Besides, in the data set with RAW264.7 [5], the IC50 was above 10 µg/mL. For the same compound, the viability at 24 h, 1.25 ug/ml in data set [6] worked out at 95.6%. Also, the viability at 24 h, 2.5 ug/ml in data set [7] was determined as 92.1%. Also, the viability at 24 h, 5 ug/ml in data set [8] came out at 91.8%. The viability at 24 h, 10 ug/ml in data set [9] worked out at 83.9%.
For the compound `COc1ccc(/C=C/C(=O)c2ccc(OC)c(OC)c2)cc1O`, the inhibition at 1.25 µg/mL with RAW264.7 [1] came out at 1.1%. The inhibition at 2.5 µg/mL in the data set on RAW264.7 [2] stood at 1.8%. Moreover, in the data set with RAW264.7 [3], the inhibition at 5 µg/mL was 2.6%. In addition, the inhibition at 10 µg/mL in the data set on RAW264.7 [4] turned out to be 9.8%. Besides, in the data set with RAW264.7 [5], the IC50 is above 10 µg/mL. For the same compound, the viability at 24 h, 1.25 ug/ml in [6] worked out at 91.4%. In addition, in data set [7], the viability at 24 h, 2.5 ug/ml was 82.1%. Moreover, in data set [8], the viability at 24 h, 5 ug/ml came to 73%. For the same compound, the viability at 24 h, 10 ug/ml in data set [9] is 73.5%.
Take `COc1ccc(/C=C/C(=O)c2ccc(OC)c(OC)c2)cc1`: in the data set with RAW264.7 [1], the inhibition at 1.25 µg/mL is 5.1%. Also, the inhibition at 2.5 µg/mL in the data set with RAW264.7 [2] was determined as 52%. In the data set with RAW264.7 [3], the inhibition at 5 µg/mL came out at 52.1%. In addition, the inhibition at 10 µg/mL with RAW264.7 [4] came out at 85.5%. Moreover, the IC50 with RAW264.7 [5] came to 2.43 µg/mL (≈ 8.15 µM). In addition, in data set [6], the viability at 24 h, 1.25 ug/ml was found to be 97.2%. Further, the viability at 24 h, 2.5 ug/ml in data set [7] amounted to 93.1%. Further, the viability at 24 h, 5 ug/ml in data set [8] stood at 78.9%. In data set [9], the viability at 24 h, 10 ug/ml came out at 73.9%.
For the compound `COc1cc(CCCc2cccc(O)c2)ccc1O`, the inhibition at 1.25 µg/mL with RAW264.7 [1] came out at 10.9%. Further, the inhibition at 2.5 µg/mL in the data set on RAW264.7 [2] is 15.9%. The inhibition at 5 µg/mL in the data set on RAW264.7 [3] amounted to 18.1%. Further, the inhibition at 10 µg/mL in the data set with RAW264.7 [4] is 80.4%. The IC50 with RAW264.7 [5] was determined as 7.13 µg/mL (≈ 27.6 µM). In addition, in data set [6], the viability at 24 h, 1.25 ug/ml stood at 100%. The viability at 24 h, 2.5 ug/ml in data set [7] worked out at 99.5%. Further, the viability at 24 h, 5 ug/ml in data set [8] came out at 97.7%. In addition, the viability at 24 h, 10 ug/ml in data set [9] was found to be 76.1%.
For `COc1ccc(C(=O)CCc2cccc(OC)c2OC)c(O)c1`, the inhibition at 1.25 µg/mL with RAW264.7 [1] came to 0.8%. In addition, the inhibition at 2.5 µg/mL with RAW264.7 [2] turned out to be 2.8%. In addition, the inhibition at 5 µg/mL in the data set on RAW264.7 [3] was 5.4%. The inhibition at 10 µg/mL with RAW264.7 [4] amounted to 18.6%. The IC50 in the data set on RAW264.7 [5] is above 10 µg/mL. For the same compound, in [6], the viability at 24 h, 1.25 ug/ml came to 96.6%. Besides, the viability at 24 h, 2.5 ug/ml in data set [7] came out at 95.2%. Further, the viability at 24 h, 5 ug/ml in data set [8] is 92.7%. Also, the viability at 24 h, 10 ug/ml in data set [9] stood at 92.8%.
As to `COc1ccc(/C=C/C(=O)c2ccc(O)c(OC)c2)cc1`, in the data set on RAW264.7 [1], the inhibition at 1.25 µg/mL came out at 7.7%. The inhibition at 2.5 µg/mL in the data set with RAW264.7 [2] is 3.1%. Also, in the data set with RAW264.7 [3], the inhibition at 5 µg/mL turned out to be 51.7%. Besides, the inhibition at 10 µg/mL in the data set with RAW264.7 [4] stood at 53.9%. For the same compound, the IC50 in the data set with RAW264.7 [5] turned out to be 4.88 µg/mL (≈ 17.2 µM). The viability at 24 h, 1.25 ug/ml in data set [6] was found to be 96.2%. In data set [7], the viability at 24 h, 2.5 ug/ml turned out to be 96%. In data set [8], the viability at 24 h, 5 ug/ml came out at 82.9%. The viability at 24 h, 10 ug/ml in data set [9] was found to be 62.3%.
As for `COc1ccc(C(=O)/C=C/c2ccc3c(c2)OCO3)c(OC)c1`, in the data set on RAW264.7 [1], the inhibition at 1.25 µg/mL stood at 2.4%. Moreover, in the data set with RAW264.7 [2], the inhibition at 2.5 µg/mL is 51.9%. Moreover, the inhibition at 5 µg/mL with RAW264.7 [3] was found to be 52%. Moreover, the inhibition at 10 µg/mL in the data set with RAW264.7 [4] amounted to 62.4%. Moreover, the IC50 in the data set on RAW264.7 [5] is 2.43 µg/mL (≈ 7.78 µM). In addition, in [6], the viability at 24 h, 1.25 ug/ml worked out at 92.7%. The viability at 24 h, 2.5 ug/ml in [7] amounted to 70.4%. In [8], the viability at 24 h, 5 ug/ml amounted to 69.2%. The viability at 24 h, 10 ug/ml in data set [9] was found to be 66.2%.
